According to patent US20160090351A1, “INHIBITORS OF DEUBIQUITINATING PROTEASES” (BRANDEIS UNIVERSITY, priority 2013, published 2016):

Key:
[1] = test system: USP9x, USP19, USP7/8, USP28/15; test: HA-Ub-VS activity profiling in cell lysates, USPs; format: biochemical, human; settings: for HA-Ub-VS labeling of USPs: HEK 293T lysates
Experimental: (§1) HA-ubiquitin vinylsulfone (HA-Ub-VS) irreversibly labels DUBs by modifying the catalytic cysteine residue Inhibition of the DUB prevents HA-Ub-VS labeling and the band is. […] The interaction with UCHL1/3 is reversible.
(§2) Lysate labeling assay on untransfected cells (1.5 mg/mL) was run with the stated concentration of inhibitor (or 1% DMSO control) for between 19-60 mins. After this time HA-Ub-VS (1.5-0.7 μM) was added and incubated for 19 mins. After this time reaction mixture (9 μL) was removed and quenched in 2× (final concentration) reducing loading buffer. For recovery experiments, a lysate of 6 mg/mL was treated with saturating compound C14 (250 μM) and incubated for 40 mins. Afterward, the lysate was diluted to 0.6 mg/mL (final concentration of inhibitor 25 μM) in lysis buffer (final volume 100 μL), then HA-Ub-VS was added. Aliquots (15 μL) were removed at the stated time (5-119 mins) and immediately quenched in 2× (final concentration) reducing loading buffer. For all HA-Ub-VS experiments samples in loading buffer were heated only to 37° C. prior to loading on a gel. This assay is highly susceptible to concentration of lysate and HA-Ub-VS. Cell experiments were carried out as above with some modifications. For Cos-1 and MCF-7 cells, after trypsinization, media with compound was added to give a final concentration of compound equal to that used in the assay. Cell pellets were lysed on an ice/salt bath with a temperature of −5° C. and lysate was centrifuged for only 5 mins.
(§3) HA-Ub-VS is an irreversible inhibitor of DUBs that is widely used in activity profiling. If the DUB inhibitors react to form a thiocarbonylated enzyme as proposed (FIG. 29B), then HA-Ub-VS labeling will be blocked. Treatment of HEK 293T lysates with HA-Ub-VS produced the characteristic pattern of protein bands at 250, 150-100, 45, 38 and 36 kDa, generally ascribed to USP9x (292 kDa), USP19 (146 kDa), USP7/8 (128 and 127 kDa, respectively), USP28/15 (122 and 112 kDa, respectively), UCH-L5 (38 kDa), UCH-L3 (26 kDa) and UCH-L1 (25 kDa) as depicted in FIG. 31.
(§4) The effect of diphenylcarbonates on HA-Ub-VS labeling was assessed to investigate the selectivity of DUB inhibition. Lysates were preincubated with diphenyl carbonates (75 μM), then treated with HA-Ub-VS (FIG. 31A). […] These C17 and C22-sensitive DUBs are most likely USP9x, USP19, USP7/8 and UCHL5, based on molecular weight (FIGS. 31B and 38). The identity of USP7 was confirmed by immunoblotting (FIG. 38F). […] Similar behavior was observed on Cos-1 cell lysates (FIG. 38B).

UCH-L5, UCH-L3, UCH-L1 = test: HA-Ub-VS activity profiling in cell lysates, UCH-Ls; format: biochemical, human; settings: for HA-Ub-VS labeling of UCHL enzymes: 75 μM, 30 minutes preincubation
Experimental: as §1, §2, §3, §4

HEK 293T cells = test: accumulation of K48- and K63-linked Ub species in HEK 293T cells; format: cell-based, human; settings: 50 μM, 2 h
Experimental: FIG. 32 depicts data showing that diphenyl carbonates inhibit DUBs in HEK 293T cells. A. Viability of HEK 293T cells assessed by the propidium iodide exclusion method: diphenyl carbonate (100 μM), bortezomib (V, 20 μM) and G5 (2 μM). N≧3, mean+/−s.d. B. HEK 293T cells were treated with the stated compounds (50 μM) for 2 h and then assayed for the accumulation of K48-linked Ub species. C. As in A, but K63-linked Ub was assayed. D. HEK 293T cells were treated with C14, C15, C17, C18 (100 μM) or DMSO for 2 hours, then harvested, lysed and treated with HA-Ub-VS. After 30 min, lysates were analyzed by SDS-PAGE and probed for HA, tubulin and actin. An intervening lane was removed for clarity. E. HEK 293T cells expressing Ub-G76V-GFP were treated with diphenyl carbonates (100 μM), bortezomib (20 μM) and G5 (2 μM). […] N>3, Mean+/−s.d. See also FIG. 39. […]

[2] = test system: ubiquitin-proteasome system; test: GFP-G76V-Ub assay in HEK 293T cells; format: cell-based, human; settings: diphenyl carbonates 100 μM, bortezomib 20 μM, G5 2 μM
Experimental: FIG. 32 depicts data showing that diphenyl carbonates inhibit DUBs in HEK 293T cells. A. Viability of HEK 293T cells assessed by the propidium iodide exclusion method: diphenyl carbonate (100 μM), bortezomib (V, 20 μM) and G5 (2 μM). N≧3, mean+/−s.d. B. HEK 293T cells were treated with the stated compounds (50 μM) for 2 h and then assayed for the accumulation of K48-linked Ub species. C. As in A, but K63-linked Ub was assayed. D. HEK 293T cells were treated with C14, C15, C17, C18 (100 μM) or DMSO for 2 hours, then harvested, lysed and treated with HA-Ub-VS. After 30 min, lysates were analyzed by SDS-PAGE and probed for HA, tubulin and actin. An intervening lane was removed for clarity. E. HEK 293T cells expressing Ub-G76V-GFP were treated with diphenyl carbonates (100 μM), bortezomib (20 μM) and G5 (2 μM). […] N>3, Mean+/−s.d. See also FIG. 39.
FACS was carried out on a […] FACS-Calibur. For HEK 293T and K562, cells were resuspended by repeated pipetting/agitation of the incubation media, followed by dilution into PBS. For Cos-1, MCF-7, and CHO cells, media was removed and trypsin was added. Harvested cells were placed in FACS buffer (0.5% FBS in PBS with 3 μg/mL propidium iodide) 30 s prior to analysis. All data were analyzed using FlowJo V10, from TreeStar (Ashland, Oreg.). Approximately 2500 cells were sorted per replicate. Cells were sorted by propidium iodide dye exclusion to give a “viable population”. GFP positive cells within this group were identified relative to untransfected controls. Then the geometric mean of the whole GFP positive population within the viable population was calculated. Typical transfection efficiencies for G76V ubiquitin were 60-70% for both Cos-1 and HEK 293T and 25-40% for CHO cells, based on GFP positive cells.
The activity of the diphenylcarbonates in the GFP-G76V-Ub assay, which monitors flux through the ubiquitin-proteasome system, was also investigated. The G76V mutation creates an unstable Ub fusion protein that is degraded in a proteasome dependent process. GFP fluorescence increased when HEK 293T cells expressing GFP-G76V-Ub were treated with the proteasome inhibitor bortezomib and decreased upon treatment with G5 (FIG. 39). This decrease has been attributed to increased flux through the ubiquitin-proteasome system triggered by the accumulation of HMW-Ub. […] Perhaps the inability of the diphenylcarbonates to inhibit UCH-L1/3 accounts for the stability of GFP-G76V-Ub. This selectivity might also explain the low cytoxicity of these compounds relative to G5.

[3] = 75 μM, 30 minutes preincubation

Compound | HA-Ub-VS labeling of USPs [1, 3] | HA-Ub-VS labeling of UCHL enzymes (UCH-L5, UCH-L3, UCH-L1; HEK 293T lysates) | accumulation of K48-linked HMW-Ub (HEK 293T cells) | accumulation of K63-linked Ub chains (HEK 293T cells) | GFP fluorescence [2] | HA-Ub-VS labeling, dose response ([1]; at 12 μM) | inhibition of UCH-L1/3/5, dose response (UCH-L5, UCH-L3, UCH-L1; below 50 μM) | HA-Ub-VS labeling of USPs ([1]; preincubation with G5) | HA-Ub-VS labeling of UCH-Ls (UCH-L5, UCH-L3, UCH-L1; HEK 293T lysates, preincubation with G5)
NCc1ccc(OC(=O)Oc2ccc(Cl)cc2)cc1 [Compound C14, 4-(aminomethyl)phenyl(4-chlorophenol)carbonate] | decreased HA-Ub-VS labeling of several USPs | relatively little effect on the UCHL enzymes | K48-linked HMW-Ub species accumulated | increase the accumulation of K63-linked Ub chains | no change in fluorescence was observed | – | – | – | –
NCc1ccc(OC(=O)Oc2ccc(Br)cc2)cc1 [Compound C15, 4-(aminomethyl)phenyl(4-bromophenyl)carbonate] | decreased HA-Ub-VS labeling of several USPs | relatively little effect on the UCHL enzymes | K48-linked HMW-Ub species accumulated | increase the accumulation of K63-linked Ub chains | no change in fluorescence was observed | – | – | – | –
NCc1ccc(OC(=O)Oc2ccc3ccccc3c2)cc1 [Compound C17] | decreased HA-Ub-VS labeling of several USPs | relatively little effect on the UCHL enzymes | K48-linked HMW-Ub species accumulated | increase the accumulation of K63-linked Ub chains | no change in fluorescence was observed | significantly inhibited the labeling of several high molecular weight proteins | little inhibition of UCH-L1/3/5 was observed below 50 μM | – | –
NCc1ccc(OC(=O)Oc2cccc3ccccc23)cc1 [Compound C18] | decreased HA-Ub-VS labeling of several USPs | relatively little effect on the UCHL enzymes | K48-linked HMW-Ub species accumulated | increase the accumulation of K63-linked Ub chains | no change in fluorescence was observed | – | – | – | –
O=C1/C(=C/c2ccc([N+](=O)[O-])cc2)CS(=O)(=O)C/C1=C\c1ccc([N+](=O)[O-])cc1 [Compound G5, reference compound] | – | – | – | – | decreased | – | – | decreased the labeling of all the USPs | UCH-L1 but not UCH-L3
